Measured values taken from BindingDB's records for doi:10.1021/jm020871e (University of Bonn, 2002).

Target: Muscarinic acetylcholine receptor M2 (Sus scrofa) (UniProt P06199)
Assay: Binding of [3H]N-methylscopolamine at porcine heart Muscarinic acetylcholine receptor M2 that inhibits the dissociation of [3H]NMS half maximally (pEC50diss) was reported

Chain of Muscarinic acetylcholine receptor M2 (Sus scrofa) (P06199 whole entry, looked up): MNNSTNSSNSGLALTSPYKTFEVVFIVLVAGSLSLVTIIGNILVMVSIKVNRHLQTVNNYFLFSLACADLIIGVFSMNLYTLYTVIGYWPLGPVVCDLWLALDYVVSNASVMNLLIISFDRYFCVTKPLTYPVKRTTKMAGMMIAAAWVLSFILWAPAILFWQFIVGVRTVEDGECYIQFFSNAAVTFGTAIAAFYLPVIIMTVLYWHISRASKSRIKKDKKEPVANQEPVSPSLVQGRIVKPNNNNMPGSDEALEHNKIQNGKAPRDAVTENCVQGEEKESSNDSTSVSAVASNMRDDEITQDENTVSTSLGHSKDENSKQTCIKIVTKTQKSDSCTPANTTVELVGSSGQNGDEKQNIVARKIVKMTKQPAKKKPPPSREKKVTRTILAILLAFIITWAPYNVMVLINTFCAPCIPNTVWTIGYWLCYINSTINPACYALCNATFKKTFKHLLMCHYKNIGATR

| Structure (SMILES) | EC50 [nM] |
| --- | --- |
| Cc1ccc2c(c1)C(=O)N(CCC[N+](C)(C)CCCCCC[N+](C)(C)CCCN1C(=O)c3ccccc3C1=O)C2=O | 324 |
| Cc1ccc2c(c1)C(=O)N(CCC[N+](C)(C)CCCCCC[N+](C)(C)CCCN1C(=O)c3ccc(C)cc3C1=O)C2=O | 170 |
| CC(C)(CN1C(=O)c2ccccc2C1=O)C[N+](C)(C)CCCCCC[N+](C)(C)CC(C)(C)CN1C(=O)c2ccccc2C1=O | 178 |
| Cc1ccc2c(c1)C(=O)N(CC(C)(C)C[N+](C)(C)CCCCCC[N+](C)(C)CC(C)(C)CN1C(=O)c3ccc(C)cc3C1=O)C2=O | 47 |

Now from value to compound:

| EC50 [nM] | Structure (SMILES) |
| --- | --- |
| 135 | CC(C)(CN1C(=O)c2ccccc2C1=O)C[N+](C)(C)CCCCCC[N+](C)(C)CCCN1C(=O)c2ccccc2C1=O |
| 36 | Cc1ccc2c(c1)C(=O)N(CCC[N+](C)(C)CCCCCC[N+](C)(C)CC(C)(C)CN1C(=O)c3ccc(C)cc3C1=O)C2=O |
| 55 | Cc1ccc2c(c1)C(=O)N(CC(C)(C)C[N+](C)(C)CCCCCC[N+](C)(C)CCCN1C(=O)c3ccccc3C1=O)C2=O |
| 71 | Cc1ccc2c(c1)C(=O)N(CCC[N+](C)(C)CCCCCC[N+](C)(C)CC(C)(C)CN1C(=O)c3ccccc3C1=O)C2=O |
